Test results: US5106407A, “Iodones and methods for antimicrobial use” (priority 1989, dated 1992)
In brackets after ≈: the same amount, converted by molar mass. Where two headings read alike, the source gives them in different places. One block for each molecule: values may come before it.

How the values were obtained:
Assay in all cases: minimum inhibitory concentration (MIC), agar dilution
Type in all cases: cell-based
Salmonella choleraesuis = system: Salmonella choleraesuis
Protocol: (§1) The minimum inhibitory concentration (MIC) for the compound of Example 19, i.e., (2-nitrophenyl)-iodonium 2,2-dimethyl-4,6-dioxo-1,3-dioxan-5-ylide was determined for 9 bacteria (using nutrient agar) and 5 yeast and fungi (using malt yeast agar). A one percent solution of this test compound (i.e., the compound of Example 19) was prepared in a mixture of acetone-water. Nutrient agar was prepared at pH 6.8 using deionized water according to standard Difco procedures. Malt yeast agar was prepared by adding 3 g Bacto yeast extract and 42 g Bacto Malt agar per liter of deionized water. The agar (nutrient agar when testing with bacteria and malt yeast agar when testing with yeast and fungi) was dispensed in 30 mL aliquots into 25×200 millimeter (mm) test tubes, capped and autoclaved for 15 min at 115° C. The test tubes containing the agar were cooled in a water bath until the temperature of the agar was 48° C. and then an appropriate amount of the one percent solution of the test compound was added (except in the controls where no test compound was added with the acetone-water) to the respective test tubes so that final concentrations of 500, 250, 100, 50, 25, 10, 5, 2.5, 1.0 and 0 parts per million (ppm) of the test compound in the agar were obtained. The agar solutions were each mixed and poured into individual petri plates so that each petri plate contained agar having a known concentration of test compound dispersed therein. After drying for 24 hr, the petri plates were inoculated with bacteria when the petri plates contained nutrient broth agar or with fungi and yeast when the petri plates contained malt yeast agar.
(§2) The inoculation with bacteria was accomplished using the following procedure. Twenty-four hr cultures of each of the bacteria were prepared by incubating the respective bacteria in tubes containing nutrient broth for 24 hr at 30° C. in a shaker. Dilutions of each of the 24 hr cultures were made so that 9 separate suspensions (one for each of the 9 test bacteria) were made, each containing about 10^8 colony forming units (CFU) per mL of suspension of a particular bacteria. Aliquots of 0.3 mL of each of the above suspensions were used to fill individual wells of a Steer's Replicator. For each microbial suspension, 0.3 mL was used to fill 3 wells (i.e., 3 wells of 0.3 mL each) so that for the 9 different bacteria 27 wells were filled. The Steer's Replicator was then used to inoculate the petri plates.
(§3) The petri plates were incubated at 30° C. for 48 hr and then read to determine if the test compound (i.e., the compound of Example 19) which was incorporated into the agar prevented growth of the respective bacteria. The minimum inhibitory concentration (MIC) for each bacteria was defined as the lowest concentration of the test compound which prevented growth of that bacteria.
(§4) In a similar procedure, the MIC (in ppm) of the compound of Example 11 (i.e., (2-nitrophenyl)-iodonium 2,6-dioxocyclohexylide) for various organisms was determined at an acid pH (about 6.8) and at an alkaline pH (about 8.2).

Proteus vulgaris = conditions: ATCC 881
Protocol: as §1, §2, §3, §4

Pseudomonas aeruginosa = conditions: ATCC 10145
Protocol: as §1, §2, §3, §4

Klebsiella pneumoniae = conditions: ATCC 8308
Protocol: as §1, §2, §3, §4

[1] = system: Pseudomonas aeruginosa PRD-10; conditions: ATCC 15442
Protocol: as §1, §2, §3, §4

Escherichia coli = conditions: ATCC 11229
Protocol: as §1, §2, §3, §4

Staphylococcus aureus = conditions: ATCC 8538
Protocol: as §1, §2, §3, §4

Bacillus subtilis = system: Bacillus subtilis
Protocol: as §1, §2, §3, §4
(§5) Using similar procedures, the MIC's (in ppm) of various compounds of Formula I and/or Formula II were determined for the organisms Enterobacter aerogenes and Bacillus subtilis in a neutral solution (pH about 6.8) and in an alkaline medium (pH about 8.2).

Enterobacter aerogenes = system: Enterobacter aerogenes
Protocol: as §1, §2, §3, §4, §5

[2] = Bacillus subtilis, alkaline growth medium (pH = 8.2), read-out: MIC (ABS)
[3] = Bacillus subtilis, neutral growth medium (pH = 6.8), read-out: MIC (NBS)
[4] = Klebsiella aerogenes, alkaline growth medium (pH = 8.2), read-out: MIC (AEA)
[5] = Klebsiella aerogenes, neutral growth medium (pH = 6.8), read-out: MIC (NEA)

SMILES: O=C1CCCC(=O)[C-]1[I+]c1ccccc1[N+](=O)[O-] [Example 1, (2-nitrophenyl)-iodonium 2,6-dioxocyclohexylide]
- MIC (Salmonella choleraesuis; ATCC 10708, Alkaline Medium (pH about 8.2)): ≤ 1.0 ppm
- MIC (Salmonella choleraesuis; Salmonella enterica, ATCC 10708 / CHOLERAESUIS, Neutral Medium (pH about 6.8), read-out: MIC): ≤ 1 µg/mL
- MIC (Proteus vulgaris; Alkaline Medium (pH about 8.2)): ≤ 1.0 ppm
- MIC (Proteus vulgaris; Proteus vulgaris, ATCC881, Neutral Medium (pH about 6.8), read-out: MIC): ≤ 1 µg/mL
- MIC (Pseudomonas aeruginosa; Alkaline Medium (pH about 8.2)): ≤ 1.0 ppm
- MIC (Pseudomonas aeruginosa; Pseudomonas aeruginosa, ATCC10145, Neutral Medium (pH about 6.8), read-out: MIC): ≤ 1 µg/mL
- MIC (Klebsiella pneumoniae; Alkaline Medium (pH about 8.2)): ≤ 1.0 ppm
- MIC (Klebsiella pneumoniae; Klebsiella pneumoniae, ATCC8308, Neutral Medium (pH about 6.8), read-out: MIC): ≤ 1 µg/mL
- MIC ([1]; Alkaline Medium (pH about 8.2)): ≤ 1.0 ppm
- MIC ([1]; Pseudomonas aeruginosa, ATCC15442, Neutral Medium (pH about 6.8), read-out: MIC): ≤ 1 µg/mL
- MIC (Escherichia coli; Alkaline Medium (pH about 8.2)): ≤ 1.0 ppm
- MIC (Escherichia coli; Escherichia coli, ATCC11229, Neutral Medium (pH about 6.8), read-out: MIC): ≤ 1 µg/mL
- MIC (Staphylococcus aureus; Alkaline Medium (pH about 8.2)): ≤ 1.0 ppm
- MIC (Staphylococcus aureus; Staphylococcus aureus, ATCC8538, Neutral Medium (pH about 6.8), read-out: MIC): ≤ 1 µg/mL
- MIC (Bacillus subtilis; ATCC 8473, Alkaline Medium (pH about 8.2)): ≤ 1.0 ppm
- MIC (Bacillus subtilis; Bacillus subtilis, ATCC8473, ATCC 8473, Neutral Medium (pH about 6.8), read-out: MIC): ≤ 1 µg/mL
- MIC (Enterobacter aerogenes; ATCC 13048, Alkaline Medium (pH about 8.2)): ≤ 1.0 ppm
- MIC (Enterobacter aerogenes; Klebsiella aerogenes, ATCC13048, ATCC 13048, Neutral Medium (pH about 6.8), read-out: MIC): ≤ 1 µg/mL

SMILES: O=c1[nH]c(=O)[c-]([I+]c2ccccc2[N+](=O)[O-])c(=O)[nH]1 [Example 44, (2-Nitrophenyl)-iodonium hexahydro-2,4,6-trioxo-5-pyrimidin-1-ylide]
- MIC (Bacillus subtilis; [2]): > 500 µg/mL
- MIC (Bacillus subtilis; [3]): 100 µg/mL (≈ 267 µM)
- MIC (Enterobacter aerogenes; [4]): 500 µg/mL (≈ 1330 µM)
- MIC (Enterobacter aerogenes; [5]): 100 µg/mL (≈ 267 µM)

SMILES: O=C1c2ccccc2C(=O)[C-]1[I+]c1ccccc1[N+](=O)[O-] [Example 48, (2-Nitrophenyl)-iodonium 2,3-dihydro-1,3-dioxo-1H-indan-2-ylide]
- MIC (Bacillus subtilis; [2]): 25 µg/mL (≈ 63.6 µM)
- MIC (Bacillus subtilis; [3]): ≤ 1 µg/mL
- MIC (Enterobacter aerogenes; [4]): 250 µg/mL (≈ 636 µM)
- MIC (Enterobacter aerogenes; [5]): 50 µg/mL (≈ 127 µM)

Further lines, results first:

- MIC (Bacillus subtilis; [2]): ≤ 10 µg/mL
- MIC (Bacillus subtilis; [3]): ≤ 10 µg/mL
- MIC (Enterobacter aerogenes; [4]): 50 µg/mL (≈ 123 µM)
- MIC (Enterobacter aerogenes; [5]): 100 µg/mL (≈ 246 µM)
SMILES: Cc1cc(=O)[c-]([I+]c2ccccc2S(C)(=O)=O)c(=O)o1 [Example 46, ((2-Methylsulfonyl)phenyl)-iodonium 3,4-dihydro-6-methyl-2,4-dioxo-2H-pyran-3-ylide]

- MIC (Bacillus subtilis; [2]): 500 µg/mL (≈ 1340 µM)
- MIC (Bacillus subtilis; [3]): 25 µg/mL (≈ 67 µM)
- MIC (Enterobacter aerogenes; [4]): 500 µg/mL (≈ 1340 µM)
- MIC (Enterobacter aerogenes; [5]): 100 µg/mL (≈ 268 µM)
SMILES: Cc1cc(=O)[c-]([I+]c2ccccc2[N+](=O)[O-])c(=O)o1 [Example 47, (2-Nitrophenyl)-iodonium 3,4-dihydro-6-methyl-2,4-dioxo-2H-pyran-3-ylide]
